Source: paper PMC6267221, “Renal Cell Carcinoma Is Abrogated by p53 Stabilization through Transglutaminase 2 Inhibition” (Cancers, 2018)

Tests used:
[1] = target: T1, transglutaminase 2 (TGase 2) (Homo sapiens, UniProt P21980); test: SPR (ProteOn XPR36); MS peptide masking supports the site; format: binding
T1 construct: gene TGM2; recombinant human TGase 2, polyhistidine-tagged
T1 sequence (P21980 2-687): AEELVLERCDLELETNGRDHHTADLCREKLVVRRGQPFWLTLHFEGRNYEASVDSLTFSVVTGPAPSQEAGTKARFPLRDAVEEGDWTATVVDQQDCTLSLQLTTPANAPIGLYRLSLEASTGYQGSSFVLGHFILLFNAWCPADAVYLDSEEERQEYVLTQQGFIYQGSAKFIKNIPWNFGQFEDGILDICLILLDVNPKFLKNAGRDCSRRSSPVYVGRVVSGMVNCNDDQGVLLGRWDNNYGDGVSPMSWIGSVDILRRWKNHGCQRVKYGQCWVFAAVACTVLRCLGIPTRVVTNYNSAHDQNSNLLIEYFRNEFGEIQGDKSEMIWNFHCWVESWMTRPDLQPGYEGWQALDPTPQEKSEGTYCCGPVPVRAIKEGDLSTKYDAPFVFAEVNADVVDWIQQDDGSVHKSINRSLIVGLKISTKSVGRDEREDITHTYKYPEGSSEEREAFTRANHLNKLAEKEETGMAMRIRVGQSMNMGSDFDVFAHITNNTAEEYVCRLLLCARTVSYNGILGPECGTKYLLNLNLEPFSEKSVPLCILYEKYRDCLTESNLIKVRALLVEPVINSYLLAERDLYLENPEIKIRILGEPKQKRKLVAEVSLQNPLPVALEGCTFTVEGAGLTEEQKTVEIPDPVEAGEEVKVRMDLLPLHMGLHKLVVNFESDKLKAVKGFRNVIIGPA

guinea pig liver TGase 2 = target: T2, guinea pig liver TGase 2 (UniProt P08587); test: succinylated casein / […]-putrescine incorporation assay; format: biochemical, Cavia cutleri
T2 construct: gene TGM2
T2 sequence (P08587 2-690): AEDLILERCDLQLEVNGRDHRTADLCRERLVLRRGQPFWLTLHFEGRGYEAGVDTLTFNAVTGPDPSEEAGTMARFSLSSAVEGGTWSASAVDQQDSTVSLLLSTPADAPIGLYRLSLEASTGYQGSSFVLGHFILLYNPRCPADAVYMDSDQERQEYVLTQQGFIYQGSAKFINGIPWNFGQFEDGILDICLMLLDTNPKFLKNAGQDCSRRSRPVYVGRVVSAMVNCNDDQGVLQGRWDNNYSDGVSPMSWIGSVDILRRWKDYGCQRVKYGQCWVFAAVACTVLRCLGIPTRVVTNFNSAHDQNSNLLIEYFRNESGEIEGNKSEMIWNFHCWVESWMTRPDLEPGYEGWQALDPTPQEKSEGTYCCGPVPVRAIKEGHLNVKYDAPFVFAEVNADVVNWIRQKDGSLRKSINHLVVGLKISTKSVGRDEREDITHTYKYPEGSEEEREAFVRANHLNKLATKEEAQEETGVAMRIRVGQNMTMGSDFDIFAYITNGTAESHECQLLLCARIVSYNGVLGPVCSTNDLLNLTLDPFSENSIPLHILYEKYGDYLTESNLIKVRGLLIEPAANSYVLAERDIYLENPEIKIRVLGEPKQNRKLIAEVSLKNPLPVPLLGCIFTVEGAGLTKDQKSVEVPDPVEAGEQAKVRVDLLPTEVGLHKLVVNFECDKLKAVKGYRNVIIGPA

[2] = target: T3, TGase 2 (as run on native gels), P21980; test: native gel or EMSA; TGase 2 incubated with streptonigrin or GTP, 37 °C; native gel, immunoblot of TGase 2; monomer to dimer; conditions: remark: other sources report otherwise
T3 chain: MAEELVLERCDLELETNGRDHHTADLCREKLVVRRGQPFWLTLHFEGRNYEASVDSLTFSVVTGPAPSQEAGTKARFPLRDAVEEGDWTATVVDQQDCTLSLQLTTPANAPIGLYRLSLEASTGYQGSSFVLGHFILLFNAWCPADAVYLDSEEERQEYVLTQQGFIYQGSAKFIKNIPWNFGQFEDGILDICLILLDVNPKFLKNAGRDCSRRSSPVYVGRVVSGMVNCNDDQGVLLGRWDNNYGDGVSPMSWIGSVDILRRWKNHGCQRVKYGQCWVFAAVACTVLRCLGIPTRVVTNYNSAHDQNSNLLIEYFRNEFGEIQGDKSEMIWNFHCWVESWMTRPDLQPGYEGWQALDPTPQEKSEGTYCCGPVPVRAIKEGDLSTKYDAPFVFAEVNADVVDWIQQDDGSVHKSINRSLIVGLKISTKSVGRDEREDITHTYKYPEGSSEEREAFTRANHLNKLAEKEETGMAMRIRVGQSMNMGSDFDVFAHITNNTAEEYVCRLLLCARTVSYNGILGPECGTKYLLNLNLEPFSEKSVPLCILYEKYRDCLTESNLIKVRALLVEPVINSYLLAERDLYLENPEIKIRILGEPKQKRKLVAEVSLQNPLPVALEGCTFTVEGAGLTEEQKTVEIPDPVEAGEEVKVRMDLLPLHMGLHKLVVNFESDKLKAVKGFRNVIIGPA

Molecule	Kd [1] [nM]	IC50 (guinea pig liver TGase 2) [nM]	fold increase in the density of the dimer band after streptonigrin treatment [2] [fold]	stoichiometry N [2]
COC1=C(N)C(=O)c2nc(-c3nc(C(=O)O)c(C)c(-c4ccc(OC)c(OC)c4O)c3N)ccc2C1=O [streptonigrin]	~700	1700		
TGase 2 (as run on native gels), P21980 1-687 (enzyme) MAEELVLERCDLELETNGRDHHTADLCREKLVVRRGQPFWLTLHFEGRNYEASVDSLTFSVVTGPAPSQEAGTKARFPLRDAVEEGDWTATVVDQQDCTLSLQLTTPANAPIGLYRLSLEASTGYQGSSFVLGHFILLFNAWCPADAVYLDSEEERQEYVLTQQGFIYQGSAKFIKNIPWNFGQFEDGILDICLILLDVNPKFLKNAGRDCSRRSSPVYVGRVVSGMVNCNDDQGVLLGRWDNNYGDGVSPMSWIGSVDILRRWKNHGCQRVKYGQCWVFAAVACTVLRCLGIPTRVVTNYNSAHDQNSNLLIEYFRNEFGEIQGDKSEMIWNFHCWVESWMTRPDLQPGYEGWQALDPTPQEKSEGTYCCGPVPVRAIKEGDLSTKYDAPFVFAEVNADVVDWIQQDDGSVHKSINRSLIVGLKISTKSVGRDEREDITHTYKYPEGSSEEREAFTRANHLNKLAEKEETGMAMRIRVGQSMNMGSDFDVFAHITNNTAEEYVCRLLLCARTVSYNGILGPECGTKYLLNLNLEPFSEKSVPLCILYEKYRDCLTESNLIKVRALLVEPVINSYLLAERDLYLENPEIKIRILGEPKQKRKLVAEVSLQNPLPVALEGCTFTVEGAGLTEEQKTVEIPDPVEAGEEVKVRMDLLPLHMGLHKLVVNFESDKLKAVKGFRNVIIGPA			2.4	2
